Columns and labels:
[1] = Molar extinction coefficient determination; assay type: physicochemical
Description: The concentration determination and measurement of full UV-Vis spectra were performed on a Tecan 20M at room temperature. The measurements were performed in a 1400 µL quarz cuvette with a pathlength of 1 cm in a volume of 1 mL.
For the accurate determination of our compounds 6-TramTO-3 the extinction coefficient was calculated. A specific amount (< 2.00 mg) of the compound was weighted on a Mettler Toledo XP6 and dissolved in a known amount of milli-Q water. Increasing amounts of such stock solution were added into a 1 mL cuvette filled with 1 ml of milli-Q water. The corresponding absorbance of each addition was measured on a Tecan Spark 20M at the maximum at 625 nm and without exceeding 10% of the initial volume. In all the cases the absorbance was between 0.1 and 1 AU. to be in concordance with Lambert-Beer law (equation E2). A = ε l c [formula]
In this equation (E2): A = absorbance of the solution; I = length of the cuvette; c = concentration; ε = molar extinction coefficient.
The lineal regression of the obtained absorbance measurements versus the concentrations of 6-TramTO-3 allowed us to obtain the molar extinction coefficient. These measurements were repeated three times independently i.e. from three different stock solutions. The mean extinction coefficient and the standard deviation of 6-TramTO-3 at a wavelength of 625 nm in milli-Q water was 59403 ±646 M^-1cm^-1.
The mean extinction coefficient and the standard deviation of 6-NH2TO-3 and 6-AzTO-3 were determined following the above described procedure. The extinction coefficient of 6-NH2TO-3 was determined in milli-Q water, whereas the extinction coefficient of 6-AzTO-3 was determined in DMSO due to its low aqueous solubility. […] For the spectrum of 6-AzTO-3 1% of DMSO was added for a better solubility. Fig. 20 and Fig. 21 show the linear regressions from the three independent measurements. Table 4 summarized the molar extinction coefficient obtained. Table 4: Determined mean extinction coefficients and standard deviations of 6-AzTO-3 in DMSO and 6-TramTO-3 and 6-NH2TO-3 in milli-Q water.

[2] = Aqueous solubility (remark); assay type: physicochemical; settings: reason why the extinction coefficient was determined in DMSO
[3] = Fluorescence quantum yield, dye alone; assay type: physicochemical; settings: reference compounds determined against each other; Atto 655 in PBS pH 7.4, Alexa Fluor 647 in 50 mM potassium phosphate pH 7.2 and 150 mM NaCl
Description: Fluorescence intensity values for the quantum yields were determined on an ISS PC1 spectrofluorometer with an ISS 11650 lamp connected to an ISS Simpson model 109 and an ISS 80011 photomulitplier connected to a MGW Lauda K2R D and an Amherst Scientific Corp. 7600F for cooling. A VWR Refrigerated Circ 1160S was connected for the cooling of the cuvette chamber. It was measured in a 1400 µL fluorescence cuvette of HellmaAnalytics (104F-QS) at 25°C using the following settings: increment: 2.0 nm; integration time: 1.0 s; excitation slit width: 0.25 mm; emission slit width: 0.5 mm; excitation wavelength 590 nm. The emission spectra were recorded from 610 to 750 nm. From all spectra the corresponding background signal was substracted. Absorbance values were measured on a Jasco V-650 UV-Vis Spectrophotometer equipped with a Jasco PAC-743 temperature controlled cell holder and a Julabo F250 cooling system. UV-Vis titration measurements were performed in a 1400 µL quarz cuvette with a pathlength of 1 cm at 25°C using the following settings: increment: 1.0 nm; bandwidth: 1.0 nm; scanning speed: 1000 nm/min; scanning mode: continuous. From all values, the corresponding background signal was subtracted. The values for the reference compounds were measured in duplicates, the ones for 6-TramTO-3 with and without dsDNACT in triplicates. The quantum yields of 6-TramTO-3 with (30 eq.) and without dsDNACT were determined in 10 mM Tris pH 7.6 and 50 mM KCI. All measurement were following the procedure of Horiba and using the equation E1: ΦX = ΦST ((GradX)/(GradST)) ((((ηX))^2)/(((ηST))^2)) [formula] where Φ = fluorescence quantum yield, η = refractive index of the used solvent, Grad = gradient from the plot of integrated fluorescence intensity vs. absorbance and the subscripts ST and X denote standard and tested sample. […]
Table 3: Determined slopes and corresponding quantum yields for the two reference compounds Alexa Flour® 647 and Atto 655 and for 6-TramTO-3 with and without dsDNACT.

[4] = Atto 655 in PBS pH 7.4; Alexa Fluor 647 in 50 mM potassium phosphate pH 7.2 and 150 mM NaCl; cited from earlier work
dsDNACT = settings: previously obtained results for DNA intercalators with the same DNA (dsDNACT); cited from earlier work
E. coli = test: Resistance to standard antibiotics, bacterial dilutions spotted onto solid medium; assay type: cell-based, Escherichia coli; settings: dilutions spotted onto LB solid medium supplemented with antibiotic, outgrowth 48 h
Description: (§1) Escherichia coli (E. coli) NEB5α (New England Biolabs) and antibiotic-resistant and -sensitive Klebsiella pneumoniae (K. pneumoniae) were cultured in Luria-Bertani (LB) solid medium (LB-Agar) overnight at 37°C. The source of the K. pneumoniae strands is of no relevance to the invention. The invention may be applied to all types of microorganisms (bacteria, viri, fungi etc.) or other cells, either contained within a sample or isolated from a sample. For staining, growth curve analysis and replating experiments bacteria were suspended in LB liquid medium at an OD600 nm of 1.0 and 800 µL were transferred into a culture tube containing 7.2 mL of LB liquid medium supplemented with DMSO or candidate dyes (2.5 µM) final concentration). Density of bacterial cultures was measured using an Ultrospec 10 Cell Density Meter with 600 nm LED source (Amersham Biosciences). For bacterial re-plating experiments bacteria were sampled at OD600 nm = 2.0 and 5 µL of indicated dilutions in LB-medium were spotted onto LB-agar plates (Fig. 5) or 100 µL were plated onto LB-agar plates followed by incubation at 37°C until colonies became visible.

[5] = system: antibiotic-sensitive K. pneumoniae; test: as above; assay type: cell-based, Klebsiella pneumoniae; settings: the other (antibiotic-sensitive) K. pneumoniae strain; dilutions spotted onto LB solid medium supplemented with antibiotic, outgrowth 48 h
Description: as §1

[6] = system: multiresistant K. pneumoniae; test: as above; assay type: cell-based, Klebsiella pneumoniae; settings: dilutions spotted onto LB solid medium supplemented with antibiotic, outgrowth 48 h
Description: as §1

[7] = system: Escherichia coli (E. coli) NEB5α; test: Bacteria culture and staining: growth and FACS labeling of E. coli; assay type: cell-based; settings: for bacterial growth in presence of dye: 2.5 µM dye in LB medium, OD600 over time, liquid and solid medium; for fluorescent labeling of live bacteria (FACS): 2.5 µM dye in culture medium, FACS at mid-exponential growth phase (OD600 = 2.0)
Description: as §1
Bacteria and macrophages were washed with PBS prior to flow cytometry and analysed using a Guava easyCyte flow cytometer (Millipore). FCS3.0 files were analysed using Flowing Software (http://flowingsoftware.btk.fi/). Cells were first gated in the forward- / side-scatter plot to exclude debries, followed by quadrant gating in plots using the fluorescence channels as shown above. For discrimination of live/dead cell discrimination cells in PBS were supplemented with 0.4 µL/mL propidium-iodide (5 mg/ml solution) followed by 5 min incubation on ice. Propidium iodide signal was recorded in the yellow channel.

bacteria = settings: in vivo labeling of bacteria for macrophage uptake assays; indicative of toxicity; cited from earlier work

For `CC[n+]1ccc(/C=C/C=C2\Sc3ccccc3N2CCCCCCN=[N+]=[N-])c2ccccc21.[I-]` [6-AzTO-3, 4-((1E,3Z)-3-(3-(6-azidohexyl)benzo[d]thiazol-2(3H)-ylidene)prop-1-en-1-yl)-1-ethylquinolin-1-ium iodide], the mean extinction coefficient ([1]; in DMSO, absorbance maximum at 639 nm) was 110203 ± 1577 M⁻¹ cm⁻¹ and the aqueous solubility [2] was “low”.

In the case of `CC[n+]1ccc(/C=C/C=C2\Sc3ccccc3N2CCCCCCN)c2ccccc21.O=C([O-])C(F)(F)F` [6-NH2TO-3, mono(4-((1E,3Z)-3-(3-(6-ammoniohexyl)benzo[d]thiazol-2(3H)-ylidene)prop-1-enyl)-1-ethylquinolinium) mono(2,2,2-trifluoroacetate)], the mean extinction coefficient ([1]; in milli-Q water, absorbance maximum at 625 nm) is reported as 90043 ± 418 M⁻¹ cm⁻¹.

In the case of `CC[N+]1=c2cc3c(cc2CCC1)=Nc1cc2c(cc1O3)N(CCCC(=O)ON1C(=O)CCC1=O)C(C)(C)CC2CS(=O)(=O)[O-]` (centres unmarked) [Atto 655, reference compound], the quantum yield [3] is given as 0.31 and the “quantum yield (lit.)” value [4] is given as 0.30.

For `CN(C)c1ccc2cc3ccc(N(C)C)cc3nc2c1` [acridine orange], the Kd (dsDNACT) is listed as 36 µM.

For `CC1(C)S[C@@H]2[C@H](NC(=O)[C@H](N)c3ccccc3)C(=O)N2[C@H]1C(=O)O` [ampicillin], the sensitivity to antibiotic (E. coli) was “sensitive”, the sensitivity to antibiotic [5] was “sensitive” and the sensitivity to antibiotic [6] was “insensitive”.

With `O=C(N[C@H](CO)[C@H](O)c1ccc([N+](=O)[O-])cc1)C(Cl)Cl` [chloramphenicol] the sensitivity to antibiotic (E. coli) was “sensitive”, the sensitivity to antibiotic [5] was “sensitive” and the sensitivity to antibiotic [6] was “insensitive”.

For `CN(C)c1ccc2nc3ccc(=[N+](C)C)cc-3sc2c1` [methylene blue], the Kd (dsDNACT) is given as 46 µM.

In the case of Alexa Fluor^® 647 [reference compound], the quantum yield [3] is given as 0.32 and the “quantum yield (lit.)” value [4] is given as 0.33.

For SyTO-9^™, the “bacterial growth in presence of dye” value [7] is listed as “delayed bacterial growth substantially”, the “fluorescent labeling of live bacteria (FACS)” value [7] is listed as “efficient green-fluorescent labeling” and the “colony formation of the stained bacteria” value (bacteria) is listed as “reduced colony formation”.

With “carboxyfluorescein succinimidyl ester [CFSE]” the “bacterial growth in presence of dye” value [7] was “compatible with bacterial growth” and the “fluorescent labeling of live bacteria (FACS)” value [7] was “hardly labeled bacteria”.

Source: patent EP3572468B1, “CYANINE DYES AND THEIR USAGE FOR IN VIVO STAINING OF MICROORGANISMS” (PHILIPPS-UNIVERSITÄT MARBURG, priority 2018, dated 2019)
